ChEMBL document CHEMBL1201862, “PubChem BioAssay data set” (2004)
Calls of active or inactive are those of the source.

Key:
HEK293 [1] = assay: cells; format: functional, cell-based; settings: Homo sapiens
HEK293 [2] = assay: inhibition of NOD1-driven NF-kB reporter – cell-based, luminescence, uHTS, primary screen (AID 1578); format: functional; settings: Homo sapiens
HEK293 [3] = assay: cells; format: functional, cell-based; settings: Homo sapiens; remark: listed apart in the source
HEK293 [4] = assay: NOD2 signaling inhibitors in MDP-stimulated cells, cell-based, uHTS, luminescence (AID 2001); format: functional; settings: Homo sapiens
[5] = target: T1, Short transient receptor potential channel 4 (Mus musculus, UniProt Q9QUQ5); assay: block of DAMGO-driven TRPC4 calcium entry – cell-based, HEK293 TRPC4/mu-opioid, Fluo-4 calcium, dose response (AID 434942); format: functional;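 note: potency of inhibitors blocking the TRPC4 calcium response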
T1 sequence (Q9QUQ5 whole entry): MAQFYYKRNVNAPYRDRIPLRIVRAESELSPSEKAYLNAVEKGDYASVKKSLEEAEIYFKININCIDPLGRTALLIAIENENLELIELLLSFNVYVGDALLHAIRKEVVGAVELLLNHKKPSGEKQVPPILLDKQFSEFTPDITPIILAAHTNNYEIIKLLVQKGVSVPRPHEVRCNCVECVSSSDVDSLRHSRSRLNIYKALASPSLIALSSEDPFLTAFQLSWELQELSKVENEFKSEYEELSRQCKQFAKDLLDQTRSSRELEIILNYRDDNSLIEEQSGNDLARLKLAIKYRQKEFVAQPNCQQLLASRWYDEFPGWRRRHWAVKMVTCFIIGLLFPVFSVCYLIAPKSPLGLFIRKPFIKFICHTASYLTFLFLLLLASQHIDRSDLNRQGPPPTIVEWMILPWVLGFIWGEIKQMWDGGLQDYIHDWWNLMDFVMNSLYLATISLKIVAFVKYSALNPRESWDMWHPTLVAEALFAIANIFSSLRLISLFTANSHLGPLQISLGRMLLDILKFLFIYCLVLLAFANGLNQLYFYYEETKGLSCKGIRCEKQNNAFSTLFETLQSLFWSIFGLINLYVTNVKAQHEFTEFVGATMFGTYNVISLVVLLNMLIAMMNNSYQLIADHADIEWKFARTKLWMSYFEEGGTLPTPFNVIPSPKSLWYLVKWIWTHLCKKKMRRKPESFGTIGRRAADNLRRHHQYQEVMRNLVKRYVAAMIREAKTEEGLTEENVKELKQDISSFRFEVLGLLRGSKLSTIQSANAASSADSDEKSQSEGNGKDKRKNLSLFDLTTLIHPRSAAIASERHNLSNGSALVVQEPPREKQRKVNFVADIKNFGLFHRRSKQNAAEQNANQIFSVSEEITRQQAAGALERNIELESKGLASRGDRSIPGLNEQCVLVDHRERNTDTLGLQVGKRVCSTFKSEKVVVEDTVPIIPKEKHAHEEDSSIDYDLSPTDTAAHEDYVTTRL

[6] = target: Peroxisome proliferator-activated receptor gamma/Nuclear receptor coactivator 1 (Homo sapiens, UniProt P37231); format: functional;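 note: agonist potency as compounds enhance coactivator SRC-1 recruitment to PPARgamma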
Peroxisome proliferator-activated receptor gamma/Nuclear receptor coactivator 1, sequence (P37231 whole entry): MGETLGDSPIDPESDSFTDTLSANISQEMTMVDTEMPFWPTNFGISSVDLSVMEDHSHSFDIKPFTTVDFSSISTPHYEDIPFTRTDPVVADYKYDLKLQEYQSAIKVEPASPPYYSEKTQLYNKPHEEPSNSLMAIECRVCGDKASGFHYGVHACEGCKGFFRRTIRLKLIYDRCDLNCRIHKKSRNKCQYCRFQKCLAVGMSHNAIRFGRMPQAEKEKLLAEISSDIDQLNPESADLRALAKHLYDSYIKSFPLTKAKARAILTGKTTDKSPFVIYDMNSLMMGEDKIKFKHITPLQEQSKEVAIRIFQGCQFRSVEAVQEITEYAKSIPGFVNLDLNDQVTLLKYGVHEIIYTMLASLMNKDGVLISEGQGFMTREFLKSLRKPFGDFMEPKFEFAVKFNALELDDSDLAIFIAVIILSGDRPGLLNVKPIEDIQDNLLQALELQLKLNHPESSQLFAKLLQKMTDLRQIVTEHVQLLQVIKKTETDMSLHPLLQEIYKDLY
Peroxisome proliferator-activated receptor gamma/Nuclear receptor coactivator 1, sequence (Q15788 whole entry, further chain): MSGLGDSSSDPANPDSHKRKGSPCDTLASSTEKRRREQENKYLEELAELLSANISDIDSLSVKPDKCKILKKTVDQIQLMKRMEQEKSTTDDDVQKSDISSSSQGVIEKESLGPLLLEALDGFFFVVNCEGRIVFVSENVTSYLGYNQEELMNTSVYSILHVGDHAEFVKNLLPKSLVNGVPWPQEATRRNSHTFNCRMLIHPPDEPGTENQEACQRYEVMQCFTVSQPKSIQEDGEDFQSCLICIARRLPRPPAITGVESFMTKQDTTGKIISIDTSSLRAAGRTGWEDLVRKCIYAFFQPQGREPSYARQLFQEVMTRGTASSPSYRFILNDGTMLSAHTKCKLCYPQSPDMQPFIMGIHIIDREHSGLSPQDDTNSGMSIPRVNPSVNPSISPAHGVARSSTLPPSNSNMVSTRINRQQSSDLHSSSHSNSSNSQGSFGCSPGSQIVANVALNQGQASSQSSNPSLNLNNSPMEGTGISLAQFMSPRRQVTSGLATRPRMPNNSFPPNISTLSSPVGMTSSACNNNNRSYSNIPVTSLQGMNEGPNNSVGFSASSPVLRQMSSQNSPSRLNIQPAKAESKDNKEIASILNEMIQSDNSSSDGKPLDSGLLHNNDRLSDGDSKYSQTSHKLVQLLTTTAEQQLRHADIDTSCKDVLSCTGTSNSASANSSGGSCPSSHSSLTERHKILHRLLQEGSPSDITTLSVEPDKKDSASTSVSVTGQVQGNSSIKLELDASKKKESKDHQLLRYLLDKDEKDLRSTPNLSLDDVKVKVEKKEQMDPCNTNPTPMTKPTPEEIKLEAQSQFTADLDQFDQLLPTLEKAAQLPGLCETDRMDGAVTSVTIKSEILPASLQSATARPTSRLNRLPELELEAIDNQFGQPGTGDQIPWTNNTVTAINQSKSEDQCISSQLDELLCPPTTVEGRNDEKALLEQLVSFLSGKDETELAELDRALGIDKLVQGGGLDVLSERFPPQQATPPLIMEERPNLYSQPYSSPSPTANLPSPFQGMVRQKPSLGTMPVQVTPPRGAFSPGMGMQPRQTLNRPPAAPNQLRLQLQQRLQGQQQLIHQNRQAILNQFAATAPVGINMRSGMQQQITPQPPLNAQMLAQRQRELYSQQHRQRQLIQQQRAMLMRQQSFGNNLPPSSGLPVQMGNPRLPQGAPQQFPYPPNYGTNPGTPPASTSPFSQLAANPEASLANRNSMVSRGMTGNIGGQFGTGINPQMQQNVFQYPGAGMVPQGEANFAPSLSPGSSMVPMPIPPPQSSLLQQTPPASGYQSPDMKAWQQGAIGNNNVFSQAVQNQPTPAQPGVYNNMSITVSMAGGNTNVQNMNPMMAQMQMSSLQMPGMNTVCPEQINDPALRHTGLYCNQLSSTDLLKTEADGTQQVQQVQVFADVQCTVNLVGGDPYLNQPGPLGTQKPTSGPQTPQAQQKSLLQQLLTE

[7] = target: Peroxisome proliferator-activated receptor gamma/Nuclear receptor coactivator 3 (Homo sapiens, UniProt P37231); format: functional;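 note: agonist potency for raising coactivator recruitment to the receptor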
[8] = target: Peroxisome proliferator-activated receptor gamma/Nuclear receptor coactivator 2 (Homo sapiens, UniProt P37231); format: functional;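 note: agonist potency for raising coactivator recruitment to the receptor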
Peroxisome proliferator-activated receptor gamma/Nuclear receptor coactivator 2, sequence (P37231 whole entry): as the sequence (P37231 whole entry) above
Peroxisome proliferator-activated receptor gamma/Nuclear receptor coactivator 2, sequence (Q15596 whole entry, further chain): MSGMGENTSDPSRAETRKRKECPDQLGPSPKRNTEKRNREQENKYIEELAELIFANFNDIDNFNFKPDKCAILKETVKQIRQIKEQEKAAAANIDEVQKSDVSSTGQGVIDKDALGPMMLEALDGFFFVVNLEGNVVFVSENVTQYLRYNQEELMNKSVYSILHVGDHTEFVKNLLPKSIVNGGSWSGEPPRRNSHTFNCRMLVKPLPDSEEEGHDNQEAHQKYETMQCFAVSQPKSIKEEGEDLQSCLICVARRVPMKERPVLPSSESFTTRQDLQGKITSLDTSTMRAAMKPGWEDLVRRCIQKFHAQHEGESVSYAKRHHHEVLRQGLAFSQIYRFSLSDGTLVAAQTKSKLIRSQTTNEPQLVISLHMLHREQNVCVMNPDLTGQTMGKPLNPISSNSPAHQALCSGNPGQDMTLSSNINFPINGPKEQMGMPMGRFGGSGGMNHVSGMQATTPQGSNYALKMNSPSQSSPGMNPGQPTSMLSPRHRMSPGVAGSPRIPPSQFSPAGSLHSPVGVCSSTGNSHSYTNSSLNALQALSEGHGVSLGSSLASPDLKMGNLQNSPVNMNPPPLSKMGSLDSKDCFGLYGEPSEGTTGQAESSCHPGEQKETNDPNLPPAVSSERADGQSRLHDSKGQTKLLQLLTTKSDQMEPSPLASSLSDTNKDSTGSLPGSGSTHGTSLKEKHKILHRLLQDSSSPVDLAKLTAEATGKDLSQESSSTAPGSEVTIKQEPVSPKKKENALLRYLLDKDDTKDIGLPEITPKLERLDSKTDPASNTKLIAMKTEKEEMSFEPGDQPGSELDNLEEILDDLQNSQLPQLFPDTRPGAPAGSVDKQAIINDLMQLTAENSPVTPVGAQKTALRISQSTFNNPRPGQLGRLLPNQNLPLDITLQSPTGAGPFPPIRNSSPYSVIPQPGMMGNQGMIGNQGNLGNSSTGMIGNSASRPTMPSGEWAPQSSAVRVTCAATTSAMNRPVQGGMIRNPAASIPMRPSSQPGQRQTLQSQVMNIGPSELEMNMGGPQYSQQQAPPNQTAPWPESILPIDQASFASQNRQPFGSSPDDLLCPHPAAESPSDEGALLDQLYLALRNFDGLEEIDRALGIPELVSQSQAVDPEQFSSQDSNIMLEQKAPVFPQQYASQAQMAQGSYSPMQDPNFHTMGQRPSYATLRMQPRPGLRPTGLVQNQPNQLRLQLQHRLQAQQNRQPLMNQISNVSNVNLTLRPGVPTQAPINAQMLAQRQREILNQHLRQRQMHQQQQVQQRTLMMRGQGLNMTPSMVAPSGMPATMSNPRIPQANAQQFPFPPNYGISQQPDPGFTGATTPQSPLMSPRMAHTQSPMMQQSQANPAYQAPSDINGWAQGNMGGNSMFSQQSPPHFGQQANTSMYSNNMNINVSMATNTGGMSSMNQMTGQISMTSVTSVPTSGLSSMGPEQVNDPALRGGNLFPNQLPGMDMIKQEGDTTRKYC

CAAX prenyl protease 2 = target: T2, CAAX prenyl protease 2 (Saccharomyces cerevisiae S288c, UniProt Q03530); format: biochemical
T2 sequence (Q03530 whole entry): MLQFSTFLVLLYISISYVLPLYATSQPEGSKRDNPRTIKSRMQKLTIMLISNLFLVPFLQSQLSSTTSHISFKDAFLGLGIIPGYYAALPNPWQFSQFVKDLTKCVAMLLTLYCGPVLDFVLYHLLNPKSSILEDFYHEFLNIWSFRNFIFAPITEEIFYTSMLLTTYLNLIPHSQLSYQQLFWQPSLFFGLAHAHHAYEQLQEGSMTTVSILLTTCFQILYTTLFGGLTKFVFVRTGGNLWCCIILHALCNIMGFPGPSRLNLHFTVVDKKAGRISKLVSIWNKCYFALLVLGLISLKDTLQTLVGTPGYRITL

Trypsin = Trypsin (Sus scrofa, UniProt P00761); assay: trypsin protease activity blockade – biochemical, quenched peptide fluorescence, cherry-pick, selectivity assay for Rce1 protease inhibitor project, dose response (AID 488789)
Trypsin, sequence (P00761 whole entry, the tested form may be a part): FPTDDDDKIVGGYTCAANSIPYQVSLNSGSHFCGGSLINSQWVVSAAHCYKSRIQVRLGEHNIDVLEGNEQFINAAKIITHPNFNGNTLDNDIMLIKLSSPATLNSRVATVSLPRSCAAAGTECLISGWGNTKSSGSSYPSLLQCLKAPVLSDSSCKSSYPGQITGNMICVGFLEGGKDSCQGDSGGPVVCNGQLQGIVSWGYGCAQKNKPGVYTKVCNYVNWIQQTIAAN

[9] = off-target signal loss in HeLa-CEM21 co-culture – HeLa F-luc CTL cells, cherry-picked, counter-screen for HIV-1 Env fusion inhibitor project, dose response (AID 652040); format: functional, cell-based;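 note: potency for signal decrease marking cytotoxic or nonspecific inhibition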
[10] = NIH3T3 cell viability loss – ATP luminescence, mouse fibroblasts, counter-screen, dose response (AID 2010); format: functional, cell-based;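 note: cells exposed to compound for about 90 hours before reading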
[11] = Trypanosoma cruzi growth suppression in host cells – NIH3T3 host cells, beta-gal luminescence, confirmation (AID 2044); format: functional, cell-based;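 note: intracellular parasites grown in NIH/3T3 mouse fibroblasts as host cells; luminescent beta-galactosidase reporter signal from transgenic T. cruzi replicating inside host cells; inhibitors lower the luminescence signal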
[12] = target: DNA dC->dU-editing enzyme APOBEC-3A (Homo sapiens, UniProt P31941); assay: Dose Response confirmation of small molecule APOBEC3A DNA Deaminase Inhibitors via a fluorescence-based single-stranded DNA deaminase assay. [Related pubchem assays (depositor defined):AID493011, AID493024]; format: functional
DNA dC->dU-editing enzyme APOBEC-3A, sequence (P31941 whole entry, the tested form may be a part): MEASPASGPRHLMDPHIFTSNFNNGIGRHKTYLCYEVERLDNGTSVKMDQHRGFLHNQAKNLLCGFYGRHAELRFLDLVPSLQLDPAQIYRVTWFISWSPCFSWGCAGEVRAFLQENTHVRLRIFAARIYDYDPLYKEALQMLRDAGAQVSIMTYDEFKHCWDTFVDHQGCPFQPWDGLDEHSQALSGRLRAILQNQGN

[13] = target: T3, Carboxy-terminal domain RNA polymerase II polypeptide A small phosphatase 1 (Homo sapiens, UniProt Q9GZU7); assay: CTDSP1 inhibitors, concentration-response, biochemical, absorbance readout, ultra-high-throughput screen actives (AID 540297); format: functional
T3 sequence (Q9GZU7 whole entry): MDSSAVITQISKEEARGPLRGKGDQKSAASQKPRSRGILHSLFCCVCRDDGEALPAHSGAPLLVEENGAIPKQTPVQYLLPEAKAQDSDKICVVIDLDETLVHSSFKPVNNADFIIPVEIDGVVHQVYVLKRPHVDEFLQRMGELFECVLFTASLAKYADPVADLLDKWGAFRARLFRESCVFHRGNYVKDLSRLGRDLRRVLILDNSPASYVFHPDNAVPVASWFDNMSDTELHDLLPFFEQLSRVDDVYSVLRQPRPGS

[14] = target: DNA dC->dU-editing enzyme APOBEC-3G (Homo sapiens, UniProt Q9HC16); format: functional;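 note: Dose-response counterscreen measuring inhibition of APOBEC3G DNA deaminase activity, run while confirming APOBEC3A inhibitors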
DNA dC->dU-editing enzyme APOBEC-3G, sequence (Q9HC16 whole entry): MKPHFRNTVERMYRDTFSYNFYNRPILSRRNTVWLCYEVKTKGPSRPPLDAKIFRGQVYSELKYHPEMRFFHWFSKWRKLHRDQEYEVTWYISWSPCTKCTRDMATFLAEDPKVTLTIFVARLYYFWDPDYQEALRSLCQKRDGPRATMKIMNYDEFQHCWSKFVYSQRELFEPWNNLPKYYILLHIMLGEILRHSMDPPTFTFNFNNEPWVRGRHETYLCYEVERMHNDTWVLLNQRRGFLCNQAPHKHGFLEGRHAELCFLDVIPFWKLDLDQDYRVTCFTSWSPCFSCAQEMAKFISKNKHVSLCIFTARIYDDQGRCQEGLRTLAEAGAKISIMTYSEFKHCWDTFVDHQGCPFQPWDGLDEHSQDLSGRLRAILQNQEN

[15] = viability of uninfected HEp-2 cells – cell-based, HTS, cytotoxicity control for RSV inhibitor project, dose response (AID 2410); format: functional; settings: human respiratory syncytial virus
[16] = HPDE-C7 pancreatic duct cell viability loss – fluorescence, HTS (AID 430); format: functional, cell-based; settings: Homo sapiens
[17] = target: T4, Calpain-2 catalytic subunit (Sus scrofa, UniProt P43367); assay: m-calpain protease blockers, concentration series – biochemical, fluorogenic peptide substrate, dose response (AID 1420); format: functional
T4 sequence (P43367 whole entry): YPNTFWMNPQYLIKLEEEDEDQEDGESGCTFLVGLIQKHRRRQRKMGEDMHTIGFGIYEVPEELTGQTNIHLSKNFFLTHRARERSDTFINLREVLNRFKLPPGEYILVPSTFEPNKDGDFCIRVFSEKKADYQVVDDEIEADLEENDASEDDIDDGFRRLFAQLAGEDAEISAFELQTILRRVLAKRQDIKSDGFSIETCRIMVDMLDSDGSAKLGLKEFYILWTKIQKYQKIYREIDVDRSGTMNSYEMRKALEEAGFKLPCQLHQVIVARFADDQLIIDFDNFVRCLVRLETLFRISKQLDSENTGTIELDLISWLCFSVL

[18] = viability loss of HPDE-C7K cells – cell-based, fluorescence, HTS, primary screen (AID 431); format: functional; settings: Homo sapiens

O=C(c1ccc(Cl)cc1)C1CCCN(Cc2ccc3ncccc3c2)C1 (stereo not given)
IC50 (HEK293 [1]): 15.5 µM (active)
EC50 (HEK293 [2]): 4.42 µM (active)
IC50 (HEK293 [3]): 3.92 µM (active)
IC50 (HEK293 [4]): 5.78 µM (active)

CCn1c(=N)n(CC(=O)c2ccc(Br)s2)c2ccccc21
EC50 [5]: 13.3 µM (active)

COC(=O)c1ccccc1NC(=O)c1cc(-c2ccc(O)cc2)on1
EC50 [6]: 24.9 µM (not active)
EC50 [7]: 33.6 µM (not active)
EC50 [8]: 31.5 µM (not active)

Cc1oc(-c2ccoc2)nc1CN(Cc1ccccc1)CC1CC1
EC50 [5]: 4.22 µM (active)

Cc1cccc2[nH]c3c(N4CCC5(CC4)OCCO5)ncnc3c12
AC50 (CAAX prenyl protease 2): 13.7 µM (active)
AC50 (Trypsin): 36.5 µM (active)

COc1ccc(OCC(=O)Nc2cc(-c3nn(C)c(=O)c4ccccc34)ccc2OC)cc1
EC50 [6]: 62.6 µM (not active)
AC50 [9]: 30.3 µM (active)
EC50 [7]: 76.6 µM (not active)
EC50 [8]: 31.2 µM (not active)

Cc1nc(N2CCOCC2)c2c(C)c(C(=O)Nc3ccc(C(F)(F)F)cc3)sc2n1
EC50 [10]: > 60 µM (not active)
AC50 (CAAX prenyl protease 2): 5.99 µM (active)
EC50 [11]: 0.522 µM (active)

C[N+](C)(C)CCCN(Cc1ccc2c(c1)OCO2)C(=O)NC1CCCCC1
IC50 [12]: 2.43 µM (active)
IC50 [13]: 3.12 µM (active)
IC50 [14]: 4.17 µM (active)

CCOC(=O)c1c2c(c(=S)n(-c3ccccc3)c1N)CCC2
CC50 [15]: 26.4 µM (active)
EC50 [16]: 10.4 µM (active)
IC50 [17]: 7.26 µM (not active)
EC50 [18]: 9.88 µM (active)
